Assay [1] has as its target T1, ODC from the rat liver (Rattus norvegicus, UniProt P09057).
T1 sequence (P09057 1-461): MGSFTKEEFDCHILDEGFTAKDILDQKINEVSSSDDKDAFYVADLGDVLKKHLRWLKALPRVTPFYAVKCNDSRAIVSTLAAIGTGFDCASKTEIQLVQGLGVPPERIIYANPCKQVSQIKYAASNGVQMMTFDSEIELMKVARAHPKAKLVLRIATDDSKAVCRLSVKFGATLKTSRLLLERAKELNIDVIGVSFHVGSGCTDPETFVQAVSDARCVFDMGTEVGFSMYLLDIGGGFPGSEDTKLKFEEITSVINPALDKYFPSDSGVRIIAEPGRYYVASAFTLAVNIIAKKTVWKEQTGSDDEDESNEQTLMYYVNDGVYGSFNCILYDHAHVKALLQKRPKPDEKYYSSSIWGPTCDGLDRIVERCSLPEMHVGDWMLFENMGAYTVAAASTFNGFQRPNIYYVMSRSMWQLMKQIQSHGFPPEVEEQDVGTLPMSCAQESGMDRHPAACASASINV
As to the kind of experiment: inhibition of ornithine decarboxylase (Seely and Pegg method, ODC from rat liver). The format is biochemical. The method, then: White-Tabor (editors): Methods in Enzymology, Volume 94: Polyamines, Academic Press, New York 1983. If ODC from the rat liver is used in this test (isolation: Hayashi, S. I. and Kameji, T., same volume, pages 154-158), IC50 values in the micromolar range down to about 0.01 μM, preferably between about 0.01 and 1 μM, for example between 0.014 and 0.7 μM, are obtained for compounds of the formula I. IC50 is the concentration of the inhibitor at which the ODC activity is 50% of a control without inhibitor.
The following results were obtained for inhibition of ODC from the rat liver (see above, Seely and Pegg and Hayashi and Kameji) with determination of the IC50 and for inhibition of the tumour growth of T24 bladder carcinoma cells (described above) with determination of the IC50 : […]

Assay [2] relates to human T24 bladder carcinoma cells. As to the kind of experiment: inhibition of growth of human T24 bladder carcinoma cells (methylene blue staining). It is filed as cell-based. Particulars: 120 h, read-out: T24 inhibition IC50. The method, then:
The carcinoma cells (1000-1500) are transinoculated into 96-well microtitre plates and incubated overnight under the conditions mentioned. The test substance is added in serial dilutions on day 1. The plates are incubated under the conditions mentioned for 5 days. […] After the incubation, the cells are fixed with 3.3% (weight/volume=w/v) aqueous glutaraldehyde solution, washed with water and stained with 0.05% (w/v) aqueous methylene blue solution. After washing, the dye is eluted with 3% (w/v) aqueous hydrochloric acid. Thereafter, the optical density (OD) per depression, which is directly proportional to the number of cells, is measured with a photometer (Titertek multiskan) at 665 nm. The IC50 values are calculated with a computer system using the formula [formula]

Assay [3] addresses T2, DAO from pig kidney (Sus scrofa, UniProt Q9TRC7).
T2 construct: DAO from pig kidney; purchased Sigma Chemie, Deisenhofen, Germany; host or cells: pig kidney
T2 sequence (Q9TRC7 25-755): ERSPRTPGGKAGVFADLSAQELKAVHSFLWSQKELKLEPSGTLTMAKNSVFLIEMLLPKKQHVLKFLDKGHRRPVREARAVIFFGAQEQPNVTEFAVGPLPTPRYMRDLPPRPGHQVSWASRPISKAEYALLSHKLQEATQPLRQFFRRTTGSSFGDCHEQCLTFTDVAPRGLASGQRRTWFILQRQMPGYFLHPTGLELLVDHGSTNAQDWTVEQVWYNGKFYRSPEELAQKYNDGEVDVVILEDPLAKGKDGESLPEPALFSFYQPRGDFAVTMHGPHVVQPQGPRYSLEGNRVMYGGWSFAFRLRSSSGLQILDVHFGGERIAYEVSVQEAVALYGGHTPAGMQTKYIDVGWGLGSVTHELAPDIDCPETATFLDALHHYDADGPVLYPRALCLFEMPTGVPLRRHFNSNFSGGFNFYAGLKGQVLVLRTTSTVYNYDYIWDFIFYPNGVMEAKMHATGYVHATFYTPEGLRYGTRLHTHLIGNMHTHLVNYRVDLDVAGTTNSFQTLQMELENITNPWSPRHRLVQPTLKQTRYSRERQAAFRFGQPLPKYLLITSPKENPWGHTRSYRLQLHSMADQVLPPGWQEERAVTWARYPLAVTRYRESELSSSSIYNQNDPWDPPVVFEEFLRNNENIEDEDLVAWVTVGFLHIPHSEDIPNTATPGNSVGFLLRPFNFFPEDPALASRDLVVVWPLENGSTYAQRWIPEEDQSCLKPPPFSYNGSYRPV
As to the kind of experiment: selectivity: inhibition of diamine oxidase (14C-putrescine assay) relative to ODC. The format is biochemical. Particulars: ODC from rat liver. The method, then:
Briefly, the batch contains (expressed as the final concentrations) 0.1M potassium phosphate buffer pH 7.4; 10 mM mercaptoethanol, 0.40 mM putrescine, including 40 nCi [1,4-^14 C]putrescine (Amersham, 110 Ci/mole) and variable amounts of enzyme protein (DAO) and inhibitor. For standard experiments, the batches are incubated for 30 minutes at 37° C. and then transferred to an ice-bath. The reaction is stopped by addition of 0.5 ml of ice-cold 1M Na2 CO3 solution which contains 1 mM aminoguanidine. After addition of 4 ml of toluene with 5 g/l of PPO (2,5-diphenyloxazole), the test tube is continuously inverted around the transverse axis at room temperature for 10 minutes, for mixing, and is then centrifuged at 1800×g in a centrifugal rotor at 4° C. for 5 minutes and finally frozen in ethanol/dry ice. […] After a total of 3 extractions, the combined toluene extracts (which contain the radiolabelled 1-pyrroline to the extent that it has been liberated from putrescine by the action of the DAO) are measured in a liquid scintillation counter (Rack Beta 1215, LKB-Wallac). For calculation of the radioactivity employed, an aliquot of the aqueous phase after 3 extractions is transferred to Whatman GF/C filter (glass fibre filter, Whatman, USA), dried in vacuo and, after addition of 5 ml of toluene/PPO, is counted. […]

For assay [4] the following is noted: cited: Eloranta et al., Life Chemistry Reports 9, 163-169 (1991); cited from earlier work.
Assay [5] has as its system ODC. Particulars: known compound, state of the art; cited from earlier work.
Assay [6] concerns diamine oxidase (DAO). Particulars: known compound, state of the art; cited from earlier work.
The mark [7] stands for this setting: human T24 bladder carcinoma cells, 5 days.

One may read the IC50 as the concentration that gives 50% inhibition.

Where a name gives a salt, the structure may show the parent alone. Read-outs that look alike come from different tables or passages of the source.

Take `NOCC[C@H](N)CO` [Example 6, (2S)-4-Aminooxy-1-hydroxy-2-butylamine sulfate]: the IC50 in assay [1] is 440 nM. The compound `CC(CCN)ON` (centres unmarked) [Example 9, 3-Aminooxy-1-butylamine dihydrochloride] registered an IC50 in assay [1] of 410 nM. Compound `CC(C)(N)CCON` [Example 5, 4-Aminooxy-2-methyl-2-butylamine dihydrochloride] gave an IC50 in assay [1] of 300 nM.

With `CC(CN)CON` (centres unmarked) [Example 7, 3-Aminooxy-2-methyl-1-propylamine sulfate], the concentration for half-maximal inhibition (IC50) in assay [1] is 27 nM; in assay [2] (Homo sapiens), 2740 nM.

Consider `NCCCON` [APA, 1-aminooxy-3-aminopropane], for which the “quotient of IC50 (DAO)/IC50 (ODC)” value in assay [3] is on record as “about 1.2”. The “activity in whole animals” value in assay [4] is reported as “practically no action in whole animal tests”. Besides, in assay [5], the “inhibition of ODC (in words)” value was “potent inhibitor of ODC”. Moreover, the “selectivity with respect to diamine oxidase (in words)” value in assay [6] is recorded as “not selective with respect to diamine oxidase”. Take `CCC(N)CCON` (centres unmarked) [Example 4, 1-aminooxy-3-pentylamine dihydrochloride]: the IC50 in assay [1] was determined as 360 nM. As to `CC(N)C(C)CON` (centres unmarked) [Example 10, 4-Aminooxy-3-methyl-2-butylamine sulfate], the IC50 in assay [1] was determined as 320 nM. Turning to `CC(N)CCON` (centres unmarked) [Example 3, 4-Aminooxy-2-butylamine dihydrochloride], the figures for the half-inhibitory concentration (IC50) in assay [1] and in assay [2] (setting [7]) were 19 nM and 3760 nM, respectively. On the same counts, the results for `C[C@@H](N)CCON` [Example 2, (2R)-4-Aminooxy-2-butylamine dihydrochloride] are 27 nM and 5490 nM.

For `C[C@H](N)CCON` [Example 1, (2S)-4-Aminooxy-2-butylamine dihydrochloride], the IC50 was 88 nM in assay [1] and 8100 nM in assay [2] (setting [7]).

Values taken from patent US5610195A, “Ornithine decarboxylase inhibiting branched aminooxy amino alkane derivatives” (Ciba-Geigy Corporation, priority 1993, dated 1997).
